In PubChem BioAssay (NCI):
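Following 48 hours of exposure in 96-well plates, responses at five concentrations were used to interpolate endpoints linearly. The concentration for 50% growth inhibition is given as GI50. TGI denotes the concentration required for complete inhibition of growth.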

Experiments:
Test in all cases: DTP human tumour cell line panel, 48 h
EKVX NSCLC = system: EKVX NSCLC
HT29 colon = system: HT29 colon
LXFL 529 NSCLC = system: LXFL 529 NSCLC
RPMI-8226 leukemia = system: RPMI-8226 leukemia
SF-268 CNS = system: SF-268 CNS
SNB-19 CNS = system: SNB-19 CNS
TK-10 renal = system: TK-10 renal
UACC-62 melanoma = system: UACC-62 melanoma
DMS 114 small cell lung = system: DMS 114 small cell lung
SW-620 colon = system: SW-620 colon

| SMILES | TGI (EKVX NSCLC) [µM] | TGI (HT29 colon) [µM] | TGI (LXFL 529 NSCLC) [µM] | TGI (RPMI-8226 leukemia) [µM] | TGI (SF-268 CNS) [µM] | TGI (SNB-19 CNS) [µM] | TGI (TK-10 renal) [µM] | TGI (UACC-62 melanoma) [µM] | TGI (DMS 114 small cell lung) [µM] | TGI (SW-620 colon) [µM] | GI50 (EKVX NSCLC) [µM] | GI50 (HT29 colon) [µM] | GI50 (RPMI-8226 leukemia) [µM] | GI50 (SF-268 CNS) [µM] | GI50 (SNB-19 CNS) [µM] | GI50 (SW-620 colon) [µM] | GI50 (TK-10 renal) [µM] | GI50 (UACC-62 melanoma) [µM] |
| --- | --- | --- | --- | --- | --- | --- | --- | --- | --- | --- | --- | --- | --- | --- | --- | --- | --- | --- |
| CCC1CCc2c(c(=O)oc3c2cc(OC)c2cccc(OC)c23)C1 (configuration not stated) | > 100 | > 100 | > 100 | > 100 | > 100 | > 100 | > 100 | > 100 | – | – | – | – | – | – | – | – | – | – |
| Cc1c(/C=N/NC(=O)c2ccc(Cl)cc2)c(=O)n(-c2ccccc2)n1C | > 100 | > 100 | > 100 | > 100 | > 100 | > 100 | > 100 | > 100 | > 100 | > 100 | – | – | – | – | – | – | – | – |
| O=P1(c2ccccc2)CCCCC1 | > 100 | > 100 | > 100 | > 100 | – | > 100 | > 100 | > 100 | > 100 | – | – | – | – | – | – | – | – | – |
| COc1cc2c(OC)cc1CSCc1sc(C)c(c1Br)CSC2 | > 100 | > 100 | > 100 | > 100 | > 100 | > 100 | > 100 | > 100 | > 100 | > 100 | – | – | – | – | – | – | – | – |
| O=C(Nc1ccc(F)cc1)c1cc(S(=O)(=O)Nc2nc3ccccc3o2)c(SCc2ccccc2)cc1Cl | 34 | > 100 | – | 56.8 | 43.1 | > 100 | 31.5 | 27.6 | – | 33.3 | 17.1 | 27 | 17.8 | 17.9 | 47 | 17.6 | 16.4 | 14.4 |
| Cc1cccc(C)c1NC(=O)C(=O)C(C(=O)c1ccccc1-c1ccccc1)C1OC(=O)c2ccccc21 (configuration not stated) | 65.4 | > 100 | 27.5 | 60.1 | 78.4 | – | 53.7 | 36.7 | 32.4 | 65.2 | – | – | – | – | – | – | – | – |
| O=C1NC(=O)/C(=C\c2ccccc2)C2=C1CCCC2 | 29.5 | 44.1 | – | – | 14.8 | 22.1 | 25.3 | 9.13 | – | 6.94 | 14.3 | 14.9 | 1.91 | 4.06 | 10.3 | 2.37 | 12 | 3.13 |
| S=c1[nH]c(=S)c2nnn(-c3ccccc3)c2[nH]1 | > 100 | > 100 | > 100 | > 100 | > 100 | > 100 | > 100 | > 100 | > 100 | > 100 | – | – | – | – | – | – | – | – |
| OCCCNc1nccc(-c2c(-c3ccc(F)cc3)nn3cc(C(F)(F)F)ccc23)n1 | > 25 | > 25 | – | > 25 | > 25 | > 25 | > 25 | > 25 | – | > 25 | 20.5 | 7.73 | 22.9 | 16.3 | > 25 | > 25 | 15.9 | 15.1 |
